This passage reports IC50 results from US12281079B2, “Quinoline derivatives, processes for their preparation and uses thereof for the treatment of cancer” (Lead Discovery Center GmbH, priority 2019, dated 2025).

Some results are limits rather than exact numbers.

In assay [1] the test system is mitochondrial transcription (7S RNA) in HeLa cells. Briefly: Quantitative real time-PCR assay of inhibition of mitochondrial transcription (7S RNA) in HeLa cells. The class given is cell-based. The note with it: Homo sapiens, 4 h compound incubation, according to Example 5, read-out: cellular qPCR assay. An outline of the steps:
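HeLa cells were exposed to compound dilution series or DMSO for 4 h, then RNA was extracted, normalized and reverse-transcribed. TaqMan qRT-PCR measured short-lived 7S RNA, with POLRMT as nuclear-transcription readout and TBP as housekeeping gene. Biological triplicates were analyzed by ΔΔCt and reported as Rq % (2−ΔΔCt).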

The target of assay [2] is mitochondrial RNA polymerase (POLRMT) (Mus musculus, UniProt Q8BKF1). Briefly: Homogeneous TR-FRET assay for mitochondrial transcription activity. The class given is biochemical. Particulars: homogeneous TR-FRET assay according to Example 4. An outline of the steps: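 Read-out is TR-FRET (ex 340, em 665 nm) from two adjacent labelled DNA probes annealing to the 407 bp transcript after EDTA/700 mM NaCl stop. Reaction: murine POLRMT, TFAM, TFB2M and LSP plasmid template, compound 10 μM or serial dilution, 10 min rt preincubation, 500 μM each nucleotide, 2 h rt.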
Sequence of mitochondrial RNA polymerase (POLRMT) (Q8BKF1 42-1207): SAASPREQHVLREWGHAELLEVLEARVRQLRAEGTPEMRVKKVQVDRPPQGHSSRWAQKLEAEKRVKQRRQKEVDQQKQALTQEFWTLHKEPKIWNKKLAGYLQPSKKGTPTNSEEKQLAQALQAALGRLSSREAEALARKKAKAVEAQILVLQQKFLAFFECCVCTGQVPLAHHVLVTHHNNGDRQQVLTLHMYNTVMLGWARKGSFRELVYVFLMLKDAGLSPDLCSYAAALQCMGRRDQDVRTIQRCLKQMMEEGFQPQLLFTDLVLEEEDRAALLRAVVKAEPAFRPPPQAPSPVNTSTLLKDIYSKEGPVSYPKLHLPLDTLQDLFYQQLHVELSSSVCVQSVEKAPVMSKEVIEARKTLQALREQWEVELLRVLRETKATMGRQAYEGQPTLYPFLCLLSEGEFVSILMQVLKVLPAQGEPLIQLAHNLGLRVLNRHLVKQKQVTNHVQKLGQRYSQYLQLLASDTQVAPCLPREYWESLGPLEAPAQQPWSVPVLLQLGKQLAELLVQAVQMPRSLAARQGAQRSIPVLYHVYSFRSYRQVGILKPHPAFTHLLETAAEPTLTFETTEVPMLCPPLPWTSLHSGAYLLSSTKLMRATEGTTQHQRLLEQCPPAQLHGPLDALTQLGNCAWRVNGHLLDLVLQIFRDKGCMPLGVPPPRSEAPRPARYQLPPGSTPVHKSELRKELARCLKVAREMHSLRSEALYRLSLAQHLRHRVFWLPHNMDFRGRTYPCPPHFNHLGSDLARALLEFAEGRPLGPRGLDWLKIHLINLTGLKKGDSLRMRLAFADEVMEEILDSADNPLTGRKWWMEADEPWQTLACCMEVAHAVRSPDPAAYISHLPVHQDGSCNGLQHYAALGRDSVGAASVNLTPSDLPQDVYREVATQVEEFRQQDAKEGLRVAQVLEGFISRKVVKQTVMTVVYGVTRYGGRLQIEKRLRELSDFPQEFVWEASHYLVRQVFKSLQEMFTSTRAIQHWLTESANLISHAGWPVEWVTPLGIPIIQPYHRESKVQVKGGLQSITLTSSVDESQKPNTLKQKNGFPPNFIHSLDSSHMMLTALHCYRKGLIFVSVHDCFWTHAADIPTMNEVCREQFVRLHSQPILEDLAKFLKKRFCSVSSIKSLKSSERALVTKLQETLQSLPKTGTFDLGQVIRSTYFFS

As to `C[C@@H](Oc1ccc2c(-c3ccccc3Cl)cc(Cl)nc2c1)C(=O)N1CCN(C(=O)C2CC2)CC1` [Compound 70, (2R)-2-[[2-chloro-4-(2-chlorophenyl)-7-quinolyl]oxy]-1-[4-(cyclopropanecarbonyl)piperazin-1-yl]propan-1-one], the values for the IC50 in assay [1] and in assay [2] were 0.5 to 5 µM and 0.1 to 1 µM, respectively.
The like results for `Cc1ccccc1-c1cc(Cl)nc2cc(O[C@H](C)C(=O)OC(C)(C)C)ccc12` [Compound 73, tert-butyl (2R)-2-[[2-chloro-4-(o-tolyl)-7-quinolyl]oxy]propanoate] were, in that order, 0.05 to 0.5 µM and 0.1 to 1 µM.
In the case of `CCOC(=O)C[C@H]1CCCN(C(=O)[C@@H](C)Oc2ccc3c(-c4ccc(F)cc4Cl)cc(C)nc3c2)C1` [Compound 74, ethyl 2-[(3R)-1-[(2R)-2-[[4-(2-chloro-4-fluoro-phenyl)-2-methyl-7-quinolyl]oxy]propanoyl]-3-piperidyl]acetate], the IC50 in assay [1] was 0.05 to 0.5 µM; in assay [2], 0.1 to 1 µM.
In the case of `C[C@@H](Oc1ccc2c(-c3ccccc3Cl)cc(Cl)nc2c1)C(=O)N1CCC[C@H](C(N)=O)C1` [Compound 76, (3S)-1-[(2R)-2-[[2-chloro-4-(2-chlorophenyl)-7-quinolyl]oxy]propanoyl]piperidine-3-carboxamide], the IC50 was in the range of 0.01 to 0.05 µM in assay [1] and 0.1 to 1 µM in assay [2].
The like results for `C[C@@H](Oc1ccc2c(-c3ccc(F)cc3Cl)ccnc2c1)C(=O)NC1CC1` [Compound 77, (2R)-2-[[4-(2-chloro-4-fluoro-phenyl)-7-quinolyl]oxy]-N-cyclopropyl-propanamide] were, in that order, 0.05 to 0.5 µM and 0.1 to 1 µM.
The like results for `C[C@H](Oc1ccc2c(-c3ccccc3Cl)ccnc2c1)C(=O)N1CCC[C@H](C(=O)O)C1` [Compound 78, (3S)-1-[(2S)-2-[[4-(2-chlorophenyl)-7-quinolyl]oxy]propanoyl]piperidine-3-carboxylic acid] were, in that order, 0.5 to 5 µM and 0.1 to 1 µM.
Turning to `Cc1sccc1-c1ccnc2cc(O[C@H](C)C(=O)N3CCC[C@H](CC(=O)O)C3)ccc12` [Compound 79, 2-[(3R)-1-[(2R)-2-[[4-(2-methyl-3-thienyl)-7-quinolyl]oxy]propanoyl]-3-piperidyl]acetic acid], the results for the IC50 in assay [1] and in assay [2] were 0.05 to 0.5 µM and 0.1 to 1 µM, respectively.
The like results for `C[C@@H](Oc1ccc2c(-c3ccc(F)cc3Cl)cc(Cl)nc2c1)C(=O)N1CCC[C@H](C(N)=O)C1` [Compound 81, (3S)-1-[(2R)-2-[[2-chloro-4-(2-chloro-4-fluoro-phenyl)-7-quinolyl]oxy]propanoyl]piperidine-3-carboxamide] were, in that order, 0.05 to 0.5 µM and 1 to 10 µM.
For `C[C@@H](Oc1ccc2c(-c3ccccc3Cl)cc(Cl)nc2c1)C(=O)N1CCC[C@H](CC(=O)O)C1` [Compound 83, 2-[(3R)-1-[(2R)-2-[[2-chloro-4-(2-chlorophenyl)-7-quinolyl]oxy]propanoyl]-3-piperidyl]acetic acid], in that order: 0.5 to 5 µM and 1 to 10 µM.
For `CC(Oc1ccc2c(-c3ccccc3Cl)ccnc2c1)C(=O)N(C)C` (stereo not shown) [Compound 86, 2-[[4-(2-chlorophenyl)-7-quinolyl]oxy]-N,N-dimethyl-propanamide], in that order: 0.05 to 0.5 µM and 1 to 10 µM.
For `C[C@@H](Oc1ccc2c(-c3ccccc3Cl)ccnc2c1)C(=O)N(C)C` [Compound 88, (2R)-2-[[4-(2-chlorophenyl)-7-quinolyl]oxy]-N,N-dimethyl-propanamide], the results for the IC50 in assay [1] and in assay [2] were 0.05 to 0.5 µM and 1 to 10 µM, respectively.
For `C[C@@H](Oc1ccc2c(-c3ccc(F)cc3Cl)ccnc2c1)C(=O)Nc1ccncc1` [Compound 95, (2R)-2-[[4-(2-chloro-4-fluoro-phenyl)-7-quinolyl]oxy]-N-(4-pyridyl)propanamide], in that order: 0.05 to 0.5 µM and 0.1 to 1 µM.
The like results for `C[C@@H](Oc1ccc2c(-c3ccccc3Cl)cc(Cl)nc2c1)C(=O)N1CCCCC1` [Compound 99, (2R)-2-[[2-chloro-4-(2-chlorophenyl)-7-quinolyl]oxy]-1-(1-piperidyl)propan-1-one] were, in that order, 0.5 to 5 µM and 1 to 10 µM.
The like results for `Cc1cc(-c2ccc(F)cc2Cl)c2ccc(O[C@H](C)C(=O)N3CCC[C@H](CC(=O)O)C3)cc2n1` [Compound 101, 2-[(3R)-1-[(2R)-2-[[4-(2-chloro-4-fluoro-phenyl)-2-methyl-7-quinolyl]oxy]propanoyl]-3-piperidyl]acetic acid] were, in that order, 0.5 to 5 µM and 1 to 10 µM.
For the compound `C[C@@H](Oc1ccc2c(-c3ccccc3Cl)cc(Cl)nc2c1)C(=O)N1CCNCC1` [Compound 104, (2R)-2-[[2-chloro-4-(2-chlorophenyl)-7-quinolyl]oxy]-1-piperazin-1-yl-propan-1-one], the IC50 lay within 0.05 to 0.5 µM in assay [1] and 1 to 10 µM in assay [2].
The like results for `C[C@@H](Oc1ccc2c(-c3ccccc3Cl)ccnc2c1)C(=O)N1CCC(CC(=O)O)CC1` [Compound 112, 2-[1-[(2R)-2-[[4-(2-chlorophenyl)-7-quinolyl]oxy]propanoyl]-4-piperidyl]acetic acid] were, in that order, 0.01 to 0.05 µM and 0.02 to 0.1 µM.
As to `Cc1cc(-c2c(C)cccc2C)c2ccc(O[C@H](C)C(=O)N3CCC[C@H](S(N)(=O)=O)C3)cc2n1` [Compound 113, (3S)-1-[(2R)-2-[[4-(2,6-dimethylphenyl)-2-methyl-7-quinolyl]oxy]propanoyl]piperidine-3-sulfonamide], the IC50 fell in the range of 0.05 to 0.5 µM in assay [1] and 0.1 to 1 µM in assay [2].
For `Cc1cc(-c2c(C)cccc2C)c2ccc(O[C@H](C)C(=O)N3CCC[C@@H](S(N)(=O)=O)C3)cc2n1` [Compound 114, (3R)-1-[(2R)-2-[[4-(2,6-dimethylphenyl)-2-methyl-7-quinolyl]oxy]propanoyl]piperidine-3-sulfonamide], in that order: 0.01 to 0.05 µM and 0.1 to 1 µM.
For `Cc1cc(-c2ccc(F)cc2Cl)c2ccc(O[C@H](C)C(=O)N3CCC[C@@H](S(N)(=O)=O)C3)cc2n1` [Compound 115, (3R)-1-[(2R)-2-[[4-(2-chloro-4-fluoro-phenyl)-2-methyl-7-quinolyl]oxy]propanoyl]piperidine-3-sulfonamide], in that order: 0.05 to 0.5 µM and 1 to 10 µM.
For `C[C@@H](Oc1ccc2c(-c3ccc(F)cc3Cl)ccnc2c1)C(=O)N1CCC[C@H](S(N)(=O)=O)C1` [Compound 116, (3S)-1-[(2R)-2-[[4-(2-chloro-4-fluoro-phenyl)-7-quinolyl]oxy]propanoyl]piperidine-3-sulfonamide], in that order: < 0.01 µM and 0.1 to 1 µM.
Turning to `C[C@@H](Oc1ccc2c(-c3ccc(F)cc3Cl)ccnc2c1)C(=O)N1CCC[C@@H](S(N)(=O)=O)C1` [Compound 117, (3R)-1-[(2R)-2-[[4-(2-chloro-4-fluoro-phenyl)-7-quinolyl]oxy]propanoyl]piperidine-3-sulfonamide], the figures for the IC50 in assay [1] and in assay [2] were 0.01 to 0.05 µM and 0.1 to 1 µM, respectively.
Take `C[C@@H](Oc1ccc2c(-c3ccccc3Cl)ccnc2c1)C(=O)N1CCC(CCC(=O)O)CC1` [Compound 118, 3-[1-[(2R)-2-[[4-(2-chlorophenyl)-7-quinolyl]oxy]propanoyl]-4-piperidyl]propanoic acid]: the IC50 in assay [1] is 0.01 to 0.05 µM; in assay [2], < 0.02 µM.
Consider `C[C@@H](Oc1ccc2c(-c3c(Cl)cccc3Cl)ccnc2c1)C(=O)N1CCC[C@H](CC(=O)O)C1` [Compound 120, 2-[(3R)-1-[(2R)-2-[[4-(2,6-dichlorophenyl)-7-quinolyl]oxy]propanoyl]-3-piperidyl]acetic acid], for which the IC50 was 0.01 to 0.05 µM in assay [1] and < 0.02 µM in assay [2].
The like results for `CCc1ccccc1-c1ccnc2cc(O[C@H](C)C(=O)N3CCC[C@H](CC(=O)O)C3)ccc12` [Compound 121, 2-((R)-1-((R)-2-((4-(2-ethylphenyl)quinolin-7-yl)oxy)propanoyl)piperidin-3-yl)acetic acid] were, in that order, 0.01 to 0.05 µM and 0.02 to 0.1 µM.
The like results for `Cc1cc(-c2c(C)cccc2C)c2ccc(O[C@H](C)C(=O)N3CCC[C@H](CC(=O)O)C3)cc2n1` [Compound 124, 2-[(3R)-1-[(2R)-2-[[4-(2,6-dimethylphenyl)-2-methyl-7-quinolyl]oxy]propanoyl]-3-piperidyl]acetic acid] were, in that order, 0.05 to 0.5 µM and 0.1 to 1 µM.
The like results for `C[C@@H](Oc1ccc2c(-c3ccc(F)cc3Cl)ccnc2n1)C(=O)N1CCC[C@H](C(=O)O)C1` [Compound 126, (3S)-1-[(2R)-2-[[5-(2-chloro-4-fluoro-phenyl)-1,8-naphthyridin-2-yl]oxy]propanoyl]piperidine-3-carboxylic acid] were, in that order, 0.01 to 0.05 µM and 0.1 to 1 µM.
Take `C[C@@H](Oc1ccc2c(-c3ccc(F)cc3Cl)ccnc2n1)C(=O)N1CCC[C@H](CC(=O)O)C1` [Compound 128, 2-[(3R)-1-[(2R)-2-[[5-(2-chloro-4-fluoro-phenyl)-1,8-naphthyridin-2-yl]oxy]propanoyl]-3-piperidyl]acetic acid]: the results for the IC50 in assay [1] and in assay [2] were 0.05 to 0.5 µM and 0.1 to 1 µM, respectively.
For `C[C@@H](Oc1ccc2c(-c3c(Cl)cccc3Cl)ccnc2c1)C(=O)N1CCC[C@H](C(=O)O)C1` [Compound 129, (3S)-1-[(2R)-2-[[4-(2,6-dichlorophenyl)-7-quinolyl]oxy]propanoyl]piperidine-3-carboxylic acid], in that order: < 0.01 µM and < 0.02 µM.
The like results for `C[C@@H](Oc1ccc2c(-c3ccc(F)cc3Cl)ccnc2c1)C(=O)Nc1ccccn1` [Compound 130, (2R)-2-[[4-(2-chloro-4-fluoro-phenyl)-7-quinolyl]oxy]-N-(2-pyridyl)propanamide] were, in that order, 0.5 to 5 µM and 0.1 to 1 µM.
